≈ marks a conversion by molar mass, not a printed value. Calls of active or inactive are those of the source. The calls are words filed in the database; no cut-off is given here.
Experiments:
[1] = system: Mycobacterium tuberculosis; experiment: Antimycobacterial activity against Mycobacterium tuberculosis H37Rv ATCC 27294 after 7 days by microplate alamar blue assay; type: functional; details: H37Rv ATCC 27294, 168 h
[2] = system: Escherichia coli; experiment: Antibacterial activity against Escherichia coli NCIM 2931 assessed as diameter of inhibition zone measured after 20 hrs by agar well diffusion method; type: functional
[3] = system: Klebsiella pneumoniae; experiment: Antibacterial activity against Klebsiella pneumoniae PTCC 1053 assessed as diameter of inhibition zone measured after 20 hrs by agar well diffusion method; type: functional
[4] = system: Pseudomonas sp.; experiment: Antibacterial activity against Pseudomonas sp. NCIM 2872 assessed as diameter of inhibition zone measured after 20 hrs by agar well diffusion method; type: functional
[5] = system: Clostridium sporogenes; experiment: Antibacterial activity against Clostridium sporogenes NICM 2559 assessed as diameter of inhibition zone measured after 20 hrs by agar well diffusion method; type: functional
[6] = system: Scopulariopsis sp; experiment: Antifungal activity against Scopulariopsis sp. MTCC 3553 assessed as diameter of inhibition zone after 4 days by agar well diffusion method; type: functional
[7] = system: Bacillus flexus; experiment: Antibacterial activity against Bacillus flexus MTCC 2909 assessed as diameter of inhibition zone measured after 20 hrs by agar well diffusion method; type: functional, Priestia flexa
[8] = system: Clostridium sporogenes; experiment: Antibacterial activity against Clostridium sporogenes NICM 2559 after 24 hrs by broth microdilution method; type: functional; details: NICM 2559, 24 h
[9] = system: Aspergillus terreus; experiment: Antifungal activity against Aspergillus terreus MTCC 1782 assessed as diameter of inhibition zone after 4 days by agar well diffusion method; type: functional
[10] = system: Streptococcus mutans; experiment: Antibacterial activity against Streptococcus mutans MTCC 890 after 24 hrs by broth microdilution method; type: functional; details: MTCC 890, 24 h
[11] = system: Bacillus flexus; experiment: Antibacterial activity against Bacillus flexus MTCC 2909 after 24 hrs by broth microdilution method; type: functional; details: Priestia flexa, MTCC 2909, 24 h
[12] = system: Pseudomonas aeruginosa; experiment: Antibacterial activity against Pseudomonas aeruginosa MTCC 4727 assessed as diameter of inhibition zone measured after 20 hrs by agar well diffusion method; type: functional
[13] = system: Streptococcus mutans; experiment: Antibacterial activity against Streptococcus mutans MTCC 890 assessed as diameter of inhibition zone measured after 20 hrs by agar well diffusion method; type: functional
[14] = system: Staphylococcus aureus; experiment: Antibacterial activity against Staphylococcus aureus NCIM 5345 assessed as diameter of inhibition zone measured after 20 hrs by agar well diffusion method; type: functional
[15] = system: Staphylococcus aureus; experiment: Antibacterial activity against Staphylococcus aureus NCIM 5345 after 24 hrs by broth microdilution method; type: functional; details: NCIM 5345, 24 h
[16] = system: HEK-293T; experiment: Growth inhibition of human HEK293T cells after 72 hrs by MTT assay; type: cell-based
[17] = Growth inhibition of human HEK293T cells at 50 ug/ml after 72 hrs by MTT assay relative to control; type: cell-based, HEK-293T; details: read-out: GI
[18] = Selectivity index, ratio of IC50 for human HEK293T cells to MIC for Mycobacterium tuberculosis H37Rv ATCC 27294; type: toxicity; details: read-out: Selectivity Index

Compound	MIC [1]	diameter of the inhibition zone (DIZ) [2]	diameter of the inhibition zone (DIZ) [3]	diameter of the inhibition zone (DIZ) [4]	diameter of the inhibition zone (DIZ) [5]	diameter of the inhibition zone (DIZ) [6]	diameter of the inhibition zone (DIZ) [7]	MIC [8]	diameter of the inhibition zone (DIZ) [9]	MIC [10]	MIC [11]	diameter of the inhibition zone (DIZ) [12]	diameter of the inhibition zone (DIZ) [13]	diameter of the inhibition zone (DIZ) [14]	MIC [15]	further results
CC[C@@H](CO)NCCN[C@@H](CC)CO [ETHAMBUTOL]	3.12 µg/mL (≈ 15.3 µM)															
OCCN1CCN(Cc2c(-c3ccccc3)[nH]c3ccnc(Cl)c23)CC1	> 25 µg/mL	inactive	inactive	inactive	10 mm	inactive	10 mm	> 50 µg/mL	inactive	> 50 µg/mL	> 50 µg/mL	inactive	10 mm	10 mm	> 50 µg/mL	
NYSTATIN		inactive	inactive	inactive	inactive							inactive	inactive	inactive		inhibition zone (IZ) [6]: 32 mm; diameter of the inhibition zone (DIZ) ([7]; Priestia flexa): inactive; inhibition zone (IZ) [9]: 32 mm
CO[C@H]1/C=C/O[C@@]2(C)Oc3c(C)c(O)c4c(O)c(c(/C=N/N5CCN(C)CC5)c(O)c4c3C2=O)NC(=O)/C(C)=C\C=C\[C@H](C)[C@H](O)[C@@H](C)[C@@H](O)[C@@H](C)[C@H](OC(C)=O)[C@@H]1C [RIFAMPIN]	0.02 µg/mL (≈ 0.0243 µM)															
Clc1nccc2[nH]c(CC3CCCCC3)c(CN3CCOCC3)c12	25 µg/mL (≈ 71.9 µM)	inactive	inactive	inactive	20 mm	inactive	20 mm	40 µg/mL (≈ 115 µM)	inactive	30 µg/mL (≈ 86.2 µM)	40 µg/mL (≈ 115 µM)	inactive	20 mm	20 mm	35 µg/mL (≈ 101 µM)	IC50 [16]: > 50 µg/mL; inhibition at 72 h, 50 ug/ml [17]: 21.2%; selectivity ratio [18]: 1 to 2
CN[C@@H]1[C@H](O[C@H]2[C@H](O[C@H]3[C@H](O)[C@@H](O)[C@H](N=C(N)N)[C@@H](O)[C@@H]3N=C(N)N)O[C@@H](C)[C@]2(O)C=O)O[C@@H](CO)[C@H](O)[C@H]1O [STREPTOMYCIN]		32 mm	32 mm	32 mm	32 mm	inactive	32 mm	1 µg/mL (≈ 1.72 µM)	inactive	0.5 µg/mL (≈ 0.86 µM)	1.5 µg/mL (≈ 2.58 µM)	32 mm	32 mm	32 mm	2 µg/mL (≈ 3.44 µM)	
CN(CCc1ccccc1)Cc1c(CC2CCCCC2)[nH]c2ccnc(Cl)c12	6.25 µg/mL (≈ 15.8 µM)	inactive	inactive	inactive	32 mm	inactive	32 mm	9 µg/mL (≈ 22.7 µM)	inactive	10 µg/mL (≈ 25.3 µM)	8 µg/mL (≈ 20.2 µM)	inactive	32 mm	32 mm	10 µg/mL (≈ 25.3 µM)	IC50 [16]: > 50 µg/mL; inhibition at 72 h, 50 ug/ml [17]: 19.1%; selectivity ratio [18]: > 16
Clc1nccc2[nH]c(-c3ccccc3)c(CN3CCOCC3)c12	> 25 µg/mL	inactive	inactive	inactive	10 mm	inactive	10 mm	> 50 µg/mL	inactive	> 50 µg/mL	> 50 µg/mL	inactive	10 mm	10 mm	> 50 µg/mL	
NNC(=O)c1ccncc1 [ISONIAZID]	0.36 µg/mL (≈ 2.63 µM)															

Reference: ChEMBL document CHEMBL4038285, “Synthesis, molecular docking, antimycobacterial and antimicrobial evaluation of new pyrrolo[3,2-c]pyridine Mannich bases” (Eur J Med Chem, 2017)
